From US8609723B2 (Beijing Dingguochangsheng Biotech., Co., Ltd., priority 2008, dated 2013)

How the values were obtained:
Assay type in all cases: in vivo
[1] = tested on: chronically stressed rats; experiment: Measurement of body temperature of chronically stressed rats; conditions: for Body temperature after stress: chronic stress 21 days
Source text: (§1) The rats in the normal control group were raised normally under a condition without any stimulation except for weighing body weight, measuring body temperature, and subjected to sugar test. All of other groups were subjected to stimulations of same type and same strength. During the experiment, different types of stimulations were applied in an unpredictable manner, and the same type of stimulation was enhanced each time.
(§2) The stress protocol was shown as follows: horizontally shaking at a high speed for 45 min; nipping tails (1 cm from the tail root): 1 min; depriving of water for 24 h; forbidding moving for 1.5 h; fasting for 24 h; stimulating with ice water (water temperature: 10° C.) for 5 min; electric shocking (1 mA, time course: is, 1 shock/min) the bottoms of feet for 30 min; changing cages and raising separately for 24 h; forbidding moving for 2 h; nipping tails (1 cm from the root of tail) for 1 min; depriving of water for 24 h; horizontally shaking at a high speed for 1.5 h; fasting for 24 h; nipping tails (1 cm from the tail root): 1 min; electric shocking (1 mA, time course: 1 s, 1 shock/min) the bottoms of feet for 40 min; stimulating with ice water for 5 min; changing cages and raising separately for 24 h; horizontally shaking at a high speed for 60 min; electric shocking (1 mA, time course: 1 s, 1 shock/min) the bottoms of feet for 50 min; depriving of water for 24 h; forbidding moving for 2.5 h; and 24 h social isolation.
The front part of a digital thermometer was coated with liquid paraffin, and then inserted into the anus of a rat with a depth of approximately 1 cm. The temperature was read twice accordingly and averaged.

[2] = tested on: chronically stressed rats; experiment: Sugar water test of rats (chronic stress model); conditions: table title says (%)
Source text: as §1
as §2, with “The chronic stress course was 20 days in total, once per day, from 9:00 AM to 2:00 PM. The” for “The”
Before this experiment, animals were trained to adapt to drink sugar water in a to quite room. Two bottles were placed simultaneously into each cage. For the first 24 h, these two bottles were both filled with 1% sugar water; and for the next 24 h, one of them was filled with 1% sugar water and the other was filled with pure water. Then after 23-hour water deprivation, the animals were tested for basic sugar water/pure water consumption. One bottle of 1% sugar water and one bottle of pure water were provided to each rat simultaneously. One hour later, the two bottles were weighed, and the total liquid consumption, sugar water consumption, pure water consumption, and the sugar water preference=sugar water consumption/total liquid consumption×100% were calculated, respectively. The experiment was performed after continuous administration of curcumin for 14 days.

[3] = tested on: chronically stressed rats; experiment: Forced swimming test of rats (chronic stress model); conditions: vs model control group
Source text: as §1
as §2, with “The chronic stress course was 20 days in total, once per day, from 9:00 AM to 2:00 PM. The” for “The”
Please see FIG. 7. 24 hours before the formal test, rats were placed into a round glass container (height: 40 cm, diameter: 18 cm) filled with water (depth: 23 cm) with a temperature of 24±1° C., and forced to conduct swim training for 15 min. […] The accumulative immobile time within the last 4 min was observed and recorded for each rat. The immobile time is intended to mean the period within which the rat stops to struggle, floats in the water and keeps immobile, or only makes a few slight movements that are necessary to keep its head floating on the surface of water.

serum corticosterone = experiment: Determination of the content of serum corticosterone (chronic stress model); conditions: stressed rats, day after 21-day stress
Source text: as §1
as §2, with “The chronic stress course was 20 days in total, once per day, from 9:00 AM to 2:00 PM. The” for “The”
In this experiment, the content of serum corticosterone was measured by a competitive method, with its mechanism shown as follow: antigens in samples and enzyme-labeled antigens compete to bind antibodies in a solid phase. The more antigens exist in samples, the less enzyme-labeled antigens bind to the solid phase, thereby resulting in a fainter coloration.
On the next day after the end of the 21-day stress period, rats were sacrificed by decollation, and 5˜10 ml whole blood was collected. A portion of the collected whole blood was kept at room temperature for 20 min, followed by centrifugation at 1000 rpm for 10 min. Serum was then separated and stored at −80° C. The serum corticosterone detection kit was used for such detection.

HCT116 cells = experiment: Antitumor experiment of tumor HCT116-bearing mice; conditions: 7-day dosage by single administration, 7 days
Source text: During the experiment, the mice were inoculated with HCT116 cells (×10^7) in armpits. […] Seven days later, the mice were sacrificed by decollation. The tumors were removed, and the mice and the tumors were weighed separately.

[4] = 4.6 mg/kg subcutaneous once every 7 days
[5] = 9.2 mg/kg subcutaneous once every 7 days
[6] = 18.4 mg/kg subcutaneous once every 7 days
[7] = 4.6 mg/kg, the values are: sugar water preference

curcumin decanoate [long acting curcumin]
Body temperature before stress [1, 4]: 37.06 ± 0.125 °C
Body temperature after stress [1, 4]: 37.40 ± 0.079 °C
Body temperature before stress [1, 5]: 37.06 ± 0.158 °C
Body temperature after stress [1, 5]: 37.45 ± 0.074 °C
Body temperature before stress [1, 6]: 37.00 ± 0.122 °C
Body temperature after stress [1, 6]: 37.48 ± 0.088 °C
Sugar water volume after stress [2, 7]: 54.1 ± 4.7%
Sugar water volume before stress [2, 7]: 60.2 ± 9.2%
Sugar water volume after stress ([2]; 9.2 mg/kg): 72.8 ± 3.1 %
Sugar water volume before stress ([2]; 9.2 mg/kg, the values are: sugar water preference): 60.4 ± 9.2%
Sugar water volume after stress ([2]; 18.4 mg/kg): 71.6 ± 2.3 %
Sugar water volume before stress ([2]; 18.4 mg/kg, the values are: sugar water preference): 66.8 ± 8.6%
reduced the accumulative immobile time of the forced swimming test ([3]; 4.6 mg/kg once every 7 days): 37.6%
reduced the accumulative immobile time of the forced swimming test ([3]; 9.2 mg/kg once every 7 days): 49.4%
reduced the accumulative immobile time of the forced swimming test ([3]; 18.4 mg/kg once every 7 days): 58.9%
serum corticosterone (serum corticosterone; 4.6 mg/kg once every 7 days): 239.5 ± 33.7 nmol/L
serum corticosterone (serum corticosterone; 9.2 mg/kg once every 7 days): 222.9 ± 30.6 nmol/L
serum corticosterone (serum corticosterone; 18.4 mg/kg once every 7 days): 199.6 ± 28.0 nmol/L
inhibitory rate of tumors (HCT116 cells; high dosage group): 49.3%
inhibitory rate of tumors (HCT116 cells; low dosage group): 29.6%
inhibitory rate of tumors (HCT116 cells; medium dosage group): 58.4%
